Patent publication US9499550B2 (BRISTOL-MYERS SQUIBB COMPANY, priority 2012, dated 2016)
Like-named read-outs stand apart in the source and are kept apart here.

Assays:
[1] = tested on: HCV genotype 1a (H77 strain) replicon in HUH-7 cells; test: HCV replicon luciferase reporter assay, genotype 1a; assay type: cell-based; settings: Hepatitis C virus, Huh-7, 72 h, HCV genotype 1a replicon luciferase, 3 days incubation
Summary of the method: (§1)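 Replicon inhibition for both genotypes was measured as Renilla luciferase signal (EnduRen, 7.5 μM final, 2 h) after 3-day, 37° C exposure of replicon-bearing HUH-7 cells in 4% FCS DMEM, 0.5% DMSO. The 1b construct carries S1179I; the 1a H77 construct carries P1496L and S2204I. Twenty-point, 3-fold dilutions were fitted four-parametrically for EC50, and CC50 was taken from multiplexed Cell Titer-Blue.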

[2] = tested on: HCV genotype 1b (Con1) replicon in HUH-7 cells; test: HCV replicon luciferase reporter assay, genotype 1b; assay type: cell-based; settings: Hepatitis C virus, Huh-7, 72 h, HCV genotype 1b replicon luciferase, 3 days incubation
Summary of the method: as §1

| SMILES | EC50 ([1]; read-out: LE_1a (EC50, range)) | EC50 ([2]; read-out: LE_1b (EC50, range)) | EC50 ([1]; read-out: LE_1a (EC50)) | EC50 ([2]; read-out: LE_1b (EC50)) |
| --- | --- | --- | --- | --- |
| CC[C@@H]1C[C@H](C)CC/C=C\[C@@H]2C[C@@]2(C(=O)NS(=O)(=O)C2(C)CC2)NC(=O)[C@@H]2C[C@@H](Oc3ncc(OC)c4ccccc34)CN2C(=O)[C@H]1NC(=O)OC(C)(C)C(F)F [Compound 5533, 1,1-difluoro-2-methylpropan-2-yl((2R,6S,7R,9R,13aS,14aR,16aS,Z)-7-ethyl-2-((4-methoxyisoquinolin-1-yl)oxy)-9-methyl-14a-(((1-methylcyclopropyl)sulfonyl)carbamoyl)-5,16-dioxo-1,2,3,5,6,7,8,9,10,11,13a,14,14a,15,16,16a-hexadecahydrocyclopropa[e]pyrrolo[1,2-a][1,4]diazacyclopentadecin-6-yl)carbamate] | 1.01 to 5 nM | 0.1 to 0.5 nM |  |  |
| CC[C@@H]1C[C@H](C)CC/C=C\[C@@H]2C[C@@]2(C(=O)NS(=O)(=O)C2(C)CC2)NC(=O)[C@@H]2C[C@@H](Oc3nccc4c5c(ccc34)OCCO5)CN2C(=O)[C@H]1NC(=O)OC(C)(C)C(F)F [Compound 5535, 1,1-difluoro-2-methylpropan-2-yl((2R,6S,7R,9R,13aS,14aR,16aS,Z)-2-((2,3-dihydro-[1,4]dioxino[2,3-f]isoquinolin-7-yl)oxy)-7-ethyl-9-methyl-14a-(((1-methylcyclopropyl)sulfonyl)carbamoyl)-5,16-dioxo-1,2,3,5,6,7,8,9,10,11,13a,14,14a,15,16,16a-hexadecahydrocyclopropa[e]pyrrolo[1,2-a][1,4]diazacyclopentadecin-6-yl)carbamate] | 5.01 to 35 nM | 1.01 to 5 nM |  |  |
| CC[C@@H]1C[C@H](C)CC/C=C\[C@@H]2C[C@@]2(C(=O)NS(=O)(=O)C2CC2)NC(=O)[C@@H]2C[C@@H](Oc3ncc(OC)c4ccccc34)CN2C(=O)[C@H]1NC(=O)OC(C)(C)C(F)F [Compound 5537, 1,1-difluoro-2-methylpropan-2-yl((2R,6S,7R,9R,13aS,14aR,16aS,Z)-14a-((cyclopropylsulfonyl)carbamoyl)-7-ethyl-2-((4-methoxyisoquinolin-1-yl)oxy)-9-methyl-5,16-dioxo-1,2,3,5,6,7,8,9,10,11,13a,14,14a,15,16,16a-hexadecahydrocyclopropa[e]pyrrolo[1,2-a][1,4]diazacyclopentadecin-6-yl)carbamate] | 0.51 to 1 nM | 0.1 to 0.5 nM |  |  |
| CC[C@@H]1C[C@H](C)CC/C=C\[C@@H]2C[C@@]2(C(=O)NS(=O)(=O)C2CC2)NC(=O)[C@@H]2C[C@@H](Oc3nc(OC)cc4ccccc34)CN2C(=O)[C@H]1NC(=O)OC(C)(C)C [Compound 6001, tert-butyl ((2R,6S,7R,9R,13aS,14aR,16aS,Z)-14a-((cyclopropylsulfonyl)carbamoyl)-7-ethyl-2-((3-methoxyisoquinolin-1-yl)oxy)-9-methyl-5,16-dioxo-1,2,3,5,6,7,8,9,10,11,13a,14,14a,15,16,16a-hexadecahydrocyclopropa[e]pyrrolo[1,2-a][1,4]diazacyclopentadecin-6-yl)carbamate] | < 5.46 nM | < 5.46 nM |  |  |
| CC[C@@H]1C[C@@H](C)CC/C=C\[C@@H]2C[C@@]2(C(=O)NS(=O)(=O)C2CC2)NC(=O)[C@@H]2C[C@@H](Oc3nc(OC)cc4ccccc34)CN2C(=O)[C@H]1NC(=O)OC(C)(C)C(F)(F)F [Compound 6002, 1,1,1-trifluoro-2-methylpropan-2-yl((2R,6S,7R,9S,13aS,14aR,16aS,Z)-14a-((cyclopropylsulfonyl)carbamoyl)-7-ethyl-2-((3-methoxyisoquinolin-1-yl)oxy)-9-methyl-5,16-dioxo-1,2,3,5,6,7,8,9,10,11,13a,14,14a,15,16,16a-hexadecahydrocyclopropa[e]pyrrolo[1,2-a][1,4]diazacyclopentadecin-6-yl)carbamate] | 4.82 to 103 nM | < 5.46 nM |  |  |
| CC[C@@H]1C[C@H](C)CC/C=C\[C@@H]2C[C@@]2(C(=O)NS(=O)(=O)C2CC2)NC(=O)[C@@H]2C[C@@H](Oc3nc(OC)cc4ccccc34)CN2C(=O)[C@H]1NC(=O)OC(C)(C)C(F)(F)F [Compound 6003, 1,1,1-trifluoro-2-methylpropan-2-yl((2R,6S,7R,9R,13aS,14aR,16aS,Z)-14a-((cyclopropylsulfonyl)carbamoyl)-7-ethyl-2-((3-methoxyisoquinolin-1-yl)oxy)-9-methyl-5,16-dioxo-1,2,3,5,6,7,8,9,10,11,13a,14,14a,15,16,16a-hexadecahydrocyclopropa[e]pyrrolo[1,2-a][1,4]diazacyclopentadecin-6-yl)carbamate] | < 5.46 nM | < 5.46 nM | 1.33 nM | 0.22 nM |
| CC[C@@H]1C[C@@H](C)CC/C=C\[C@@H]2C[C@@]2(C(=O)NS(=O)(=O)C2(C)CC2)NC(=O)[C@@H]2C[C@@H](Oc3nc(OC)cc4ccccc34)CN2C(=O)[C@H]1NC(=O)OC(C)(C)C [Compound 6004, tert-butyl ((2R,6S,7R,9S,13aS,14aR,16aS,Z)-7-ethyl-2-((3-methoxyisoquinolin-1-yl)oxy)-9-methyl-14a-(((1-methylcyclopropyl)sulfonyl)carbamoyl)-5,16-dioxo-1,2,3,5,6,7,8,9,10,11,13a,14,14a,15,16,16a-hexadecahydrocyclopropa[e]pyrrolo[1,2-a][1,4]diazacyclopentadecin-6-yl)carbamate] | 4.82 to 103 nM | < 5.46 nM |  |  |
| CC[C@@H]1C[C@H](C)CC/C=C\[C@@H]2C[C@@]2(C(=O)NS(=O)(=O)C2(C)CC2)NC(=O)[C@@H]2C[C@@H](Oc3nc(OC)cc4ccccc34)CN2C(=O)[C@H]1NC(=O)OC(C)(C)C [Compound 6005, tert-butyl ((2R,6S,7R,9R,13aS,14aR,16aS,Z)-7-ethyl-2-((3-methoxyisoquinolin-1-yl)oxy)-9-methyl-14a-(((1-methylcyclopropyl)sulfonyl)carbamoyl)-5,16-dioxo-1,2,3,5,6,7,8,9,10,11,13a,14,14a,15,16,16a-hexadecahydrocyclopropa[e]pyrrolo[1,2-a][1,4]diazacyclopentadecin-6-yl)carbamate] | < 5.46 nM | < 5.46 nM | 1.29 nM | 0.28 nM |
| CC[C@@H]1C[C@H](C)CC/C=C\[C@@H]2C[C@@]2(C(=O)NS(=O)(=O)C2(C)CC2)NC(=O)[C@@H]2C[C@@H](Oc3nc(OC)cc4ccccc34)CN2C(=O)[C@H]1NC(=O)OC(C)(C)C(F)(F)F [Compound 6007, 1,1,1-trifluoro-2-methylpropan-2-yl((2R,6S,7R,9R,13aS,14aR,16aS,Z)-7-ethyl-2-((3-methoxyisoquinolin-1-yl)oxy)-9-methyl-14a-(((1-methylcyclopropyl)sulfonyl)carbamoyl)-5,16-dioxo-1,2,3,5,6,7,8,9,10,11,13a,14,14a,15,16,16a-hexadecahydrocyclopropa[e]pyrrolo[1,2-a][1,4]diazacyclopentadecin-6-yl)carbamate] | < 5.46 nM | < 5.46 nM |  |  |
| COc1cc2ccccc2c(O[C@@H]2C[C@H]3C(=O)N[C@]4(C(=O)NS(=O)(=O)C5(C)CC5)C[C@H]4/C=C\CC[C@H](C)C[C@@H](C)[C@H](NC(=O)OC(C)(C)C)C(=O)N3C2)n1 [Compound 6008, tert-butyl ((2R,6S,7R,9S,13aS,14aR,16aS,Z)-2-((3-methoxyisoquinolin-1-yl)oxy)-7,9-dimethyl-14a-(((1-methylcyclopropyl)sulfonyl)carbamoyl)-5,16-dioxo-1,2,3,5,6,7,8,9,10,11,13a,14,14a,15,16,16a-hexadecahydrocyclopropa[e]pyrrolo[1,2-a][1,4]diazacyclopentadecin-6-yl)carbamate] | < 5.46 nM | < 5.46 nM |  |  |
| COc1cc2ccccc2c(O[C@@H]2C[C@H]3C(=O)N[C@]4(C(=O)NS(=O)(=O)C5(C)CC5)C[C@H]4/C=C\CC[C@@H](C)C[C@@H](C)[C@H](NC(=O)OC(C)(C)C)C(=O)N3C2)n1 [Compound 6009, tert-butyl ((2R,6S,7R,9R,13aS,14aR,16aS,Z)-2-((3-methoxyisoquinolin-1-yl)oxy)-7,9-dimethyl-14a-(((1-methylcyclopropyl)sulfonyl)carbamoyl)-5,16-dioxo-1,2,3,5,6,7,8,9,10,11,13a,14,14a,15,16,16a-hexadecahydrocyclopropa[e]pyrrolo[1,2-a][1,4]diazacyclopentadecin-6-yl)carbamate] | < 5.46 nM | < 5.46 nM | 1.12 nM | 0.3 nM |
| COc1cc2ccccc2c(O[C@@H]2C[C@H]3C(=O)N[C@]4(C(=O)NS(=O)(=O)C5CC5)C[C@H]4/C=C\CC[C@@H](C)C[C@@H](C)[C@H](NC(=O)OC(C)(C)C)C(=O)N3C2)n1 [Compound 6011, tert-butyl ((2R,6S,7R,9R,13aS,14aR,16aS,Z)-14a-((cyclopropylsulfonyl)carbamoyl)-2-((3-methoxyisoquinolin-1-yl)oxy)-7,9-dimethyl-5,16-dioxo-1,2,3,5,6,7,8,9,10,11,13a,14,14a,15,16,16a-hexadecahydrocyclopropa[e]pyrrolo[1,2-a][1,4]diazacyclopentadecin-6-yl)carbamate] | < 5.46 nM | < 5.46 nM |  |  |
| COc1cc2ccccc2c(O[C@@H]2C[C@H]3C(=O)N[C@]4(C(=O)NS(=O)(=O)C5(C)CC5)C[C@H]4/C=C\CC[C@@H](C)C[C@@H](C)[C@H](NC(=O)OC(C)(C)C(F)(F)F)C(=O)N3C2)n1 [Compound 6015, 1,1,1-trifluoro-2-methylpropan-2-yl((2R,6S,7R,9R,13aS,14aR,16aS,Z)-2-((3-methoxyisoquinolin-1-yl)oxy)-7,9-dimethyl-14a-(((1-methylcyclopropyl)sulfonyl)carbamoyl)-5,16-dioxo-1,2,3,5,6,7,8,9,10,11,13a,14,14a,15,16,16a-hexadecahydrocyclopropa[e]pyrrolo[1,2-a][1,4]diazacyclopentadecin-6-yl)carbamate] | < 5.46 nM | < 5.46 nM | 1.19 nM | 0.24 nM |
